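Five compound concentrations were applied to cells in 96-well plates for 48 hours; endpoints were derived by simple linear interpolation of the resulting dose-response curve. At the TGI there is no net growth.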
Assays:
Experiment in all cases: NCI-60 cell line screen, 48 h
[1] = test system: 786-0 renal
[2] = test system: A498 renal
[3] = test system: A549 NSCLC
[4] = test system: ACHN renal
[5] = test system: BT-549 breast
[6] = test system: CAKI-1 renal
[7] = test system: CCRF-CEM leukemia
[8] = test system: COLO 205 colon
[9] = test system: DU-145 prostate
[10] = test system: EKVX NSCLC
[11] = test system: HCC-2998 colon
[12] = test system: HCT-116 colon
[13] = test system: HCT-15 colon
[14] = test system: HL-60(TB) leukemia
[15] = test system: HOP-62 NSCLC
[16] = test system: HOP-92 NSCLC
[17] = test system: HS 578T breast
[18] = test system: HT29 colon
[19] = test system: IGROV1 ovarian
[20] = test system: K-562 leukemia
[21] = test system: KM12 colon
[22] = test system: LOX IMVI melanoma
[23] = test system: M14 melanoma
[24] = test system: MALME-3M melanoma
[25] = test system: MCF7 breast
[26] = test system: MDA-MB-231 breast
[27] = test system: MDA-MB-435
[28] = test system: MDA-N
[29] = test system: MOLT-4 leukemia
[30] = test system: NCI-H23 lung
[31] = test system: NCI-H522 lung
[32] = test system: NCI/ADR-RES ovarian
[33] = test system: OVCAR-3 ovarian
[34] = test system: OVCAR-4 ovarian
[35] = test system: OVCAR-5 ovarian
[36] = test system: OVCAR-8 ovarian
[37] = test system: PC-3 prostate
[38] = test system: RPMI-8226 leukemia
[39] = test system: RXF 393 renal
[40] = test system: SF-268 CNS
[41] = test system: SF-295 CNS
[42] = test system: SF-539 CNS
[43] = test system: SK-MEL-2 melanoma
[44] = test system: SK-MEL-5 melanoma
[45] = test system: SN12C renal
[46] = test system: SNB-19 CNS
[47] = test system: SNB-75 CNS
[48] = test system: SR leukemia
[49] = test system: SW-620 colon
[50] = test system: T-47D breast
[51] = test system: TK-10 renal
[52] = test system: U251 CNS
[53] = test system: UACC-257 melanoma
[54] = test system: UACC-62 melanoma
[55] = test system: UO-31 renal
[56] = test system: NCI-H226 lung
[57] = test system: NCI-H460 lung
[58] = test system: SK-MEL-28 melanoma
[59] = test system: SK-OV-3 ovarian

Q: Which TGI [1] does the source give for NC(=O)SCC(=O)Nc1ccc2cccc3c2c1CC3 here?
A: 42.8 µM

Q: And the TGI [2]?
A: > 100 µM

Q: And the TGI [3]?
A: > 100 µM

Q: What about the TGI [4] of the same molecule?
A: 44.7 µM

Q: What about the TGI [5] of the same molecule?
A: 34.3 µM

Q: And the TGI [6]?
A: 91.9 µM

Q: And the TGI [7]?
A: > 100 µM

Q: What about the TGI [8] of the same molecule?
A: > 100 µM

Q: What about the TGI [9] of the same molecule?
A: > 100 µM

Q: And the TGI [10]?
A: > 100 µM

Q: And the TGI [11]?
A: > 100 µM

Q: And the TGI [12]?
A: 36 µM

Q: What about the TGI [13] of the same molecule?
A: > 100 µM

Q: And the TGI [14]?
A: 28.3 µM

Q: What about the TGI [15] of the same molecule?
A: > 100 µM

Q: What about the TGI [16] of the same molecule?
A: 4.61 µM

Q: What about the TGI [17] of the same molecule?
A: > 100 µM

Q: And the TGI [18]?
A: 88.7 µM

Q: And the TGI [19]?
A: > 100 µM

Q: What about the TGI [20] of the same molecule?
A: > 100 µM

Q: And the TGI [21]?
A: > 100 µM

Q: What about the TGI [22] of the same molecule?
A: 21.6 µM

Q: And the TGI [23]?
A: > 100 µM

Q: And the TGI [24]?
A: > 100 µM

Q: What about the TGI [25] of the same molecule?
A: 29.6 µM

Q: What about the TGI [26] of the same molecule?
A: 27.4 µM

Q: And the TGI [27]?
A: 33.6 µM

Q: And the TGI [28]?
A: 47.2 µM

Q: What about the TGI [29] of the same molecule?
A: 63.1 µM

Q: And the TGI [30]?
A: 59.9 µM

Q: What about the TGI [31] of the same molecule?
A: > 100 µM

Q: What about the TGI [32] of the same molecule?
A: > 100 µM

Q: And the TGI [33]?
A: > 100 µM

Q: And the TGI [34]?
A: 56.8 µM

Q: What about the TGI [35] of the same molecule?
A: 52 µM

Q: And the TGI [36]?
A: > 100 µM

Q: What about the TGI [37] of the same molecule?
A: > 100 µM

Q: And the TGI [38]?
A: 49.2 µM

Q: And the TGI [39]?
A: 54.4 µM

Q: What about the TGI [40] of the same molecule?
A: 44.8 µM

Q: And the TGI [41]?
A: > 100 µM

Q: And the TGI [42]?
A: 34.6 µM

Q: And the TGI [43]?
A: 47.1 µM

Q: What about the TGI [44] of the same molecule?
A: 75.9 µM

Q: And the TGI [45]?
A: 45.6 µM

Q: What about the TGI [46] of the same molecule?
A: > 100 µM

Q: And the TGI [47]?
A: > 100 µM

Q: And the TGI [48]?
A: 32.9 µM

Q: What about the TGI [49] of the same molecule?
A: 24.6 µM

Q: And the TGI [50]?
A: 95.9 µM

Q: And the TGI [51]?
A: 69.8 µM

Q: What about the TGI [52] of the same molecule?
A: 20.5 µM

Q: What about the TGI [53] of the same molecule?
A: 51.3 µM

Q: And the TGI [54]?
A: 37.5 µM

Q: What about the TGI [55] of the same molecule?
A: > 100 µM

Q: O=C(c1ccccc1)C(C(=O)c1ccccc1)c1nc2ccccc2sc1=O was tested. Which TGI [1] did it give?
A: > 25 µM

Q: And the TGI [2]?
A: > 25 µM

Q: And the TGI [3]?
A: > 25 µM

Q: What about the TGI [4] of the same molecule?
A: > 25 µM

Q: And the TGI [5]?
A: > 25 µM

Q: And the TGI [6]?
A: > 25 µM

Q: What about the TGI [7] of the same molecule?
A: > 25 µM

Q: What about the TGI [8] of the same molecule?
A: > 25 µM

Q: What about the TGI [9] of the same molecule?
A: > 25 µM

Q: And the TGI [10]?
A: > 25 µM

Q: What about the TGI [11] of the same molecule?
A: > 25 µM

Q: What about the TGI [12] of the same molecule?
A: > 25 µM

Q: And the TGI [13]?
A: > 25 µM

Q: And the TGI [14]?
A: > 25 µM

Q: What about the TGI [15] of the same molecule?
A: > 25 µM

Q: And the TGI [16]?
A: 13 µM

Q: And the TGI [17]?
A: > 25 µM

Q: And the TGI [18]?
A: > 25 µM

Q: And the TGI [19]?
A: > 25 µM

Q: What about the TGI [20] of the same molecule?
A: > 25 µM

Q: What about the TGI [21] of the same molecule?
A: > 25 µM

Q: What about the TGI [22] of the same molecule?
A: > 25 µM

Q: And the TGI [23]?
A: > 25 µM

Q: And the TGI [24]?
A: > 25 µM

Q: What about the TGI [25] of the same molecule?
A: > 25 µM

Q: And the TGI [26]?
A: > 25 µM

Q: What about the TGI [27] of the same molecule?
A: > 25 µM

Q: What about the TGI [28] of the same molecule?
A: > 25 µM

Q: And the TGI [29]?
A: > 25 µM

Q: And the TGI [56]?
A: 23 µM

Q: What about the TGI [30] of the same molecule?
A: > 25 µM

Q: And the TGI [57]?
A: > 25 µM

Q: And the TGI [31]?
A: > 25 µM

Q: What about the TGI [32] of the same molecule?
A: > 25 µM

Q: What about the TGI [33] of the same molecule?
A: > 25 µM

Q: And the TGI [34]?
A: > 25 µM

Q: And the TGI [35]?
A: > 25 µM

Q: What about the TGI [36] of the same molecule?
A: > 25 µM

Q: What about the TGI [37] of the same molecule?
A: > 25 µM

Q: And the TGI [38]?
A: > 25 µM

Q: And the TGI [39]?
A: > 25 µM

Q: What about the TGI [40] of the same molecule?
A: > 25 µM

Q: And the TGI [41]?
A: > 25 µM

Q: What about the TGI [42] of the same molecule?
A: > 25 µM

Q: And the TGI [43]?
A: > 25 µM

Q: And the TGI [58]?
A: > 25 µM

Q: What about the TGI [44] of the same molecule?
A: > 25 µM

Q: What about the TGI [59] of the same molecule?
A: > 25 µM

Q: And the TGI [45]?
A: > 25 µM

Q: And the TGI [46]?
A: > 25 µM

Q: And the TGI [49]?
A: > 25 µM

Q: What about the TGI [50] of the same molecule?
A: > 25 µM

Q: What about the TGI [51] of the same molecule?
A: > 25 µM

Q: And the TGI [52]?
A: > 25 µM

Q: And the TGI [53]?
A: > 25 µM

Q: What about the TGI [54] of the same molecule?
A: 24 µM

Q: And the TGI [55]?
A: > 25 µM

Q: What does the source list for COc1cc2oc3c(c(=O)c2c(O)c1/C=C/C(C)C)CCC(C)(C)Oc1cc(O)ccc1-3?
A: TGI [1]: 47.1 µM; TGI [2]: 42.6 µM; TGI [3]: 27.1 µM; TGI [4]: 27.1 µM; TGI [5]: 31.6 µM; TGI [6]: 30.6 µM; TGI [7]: 57.6 µM; TGI [8]: 66.9 µM; TGI [9]: 97.9 µM; TGI [10]: 47.6 µM; TGI [11]: 27.5 µM; TGI [12]: 65.9 µM; TGI [13]: 21.8 µM; TGI [14]: 45.4 µM; TGI [15]: 28.9 µM; TGI [16]: 34.3 µM; TGI [17]: 31.2 µM; TGI [18]: 19.2 µM; TGI [19]: 40.6 µM; TGI [20]: 13.6 µM; TGI [21]: 21.8 µM; TGI [22]: > 100 µM; TGI [23]: 23 µM; TGI [24]: 41.4 µM; TGI [25]: 26.7 µM; TGI [26]: 32.4 µM; TGI [27]: 39.8 µM; TGI [28]: 25.6 µM; TGI [29]: 35 µM; TGI [30]: 30.1 µM; TGI [57]: 21.3 µM; TGI [31]: 38.1 µM; TGI [32]: 39.3 µM; TGI [33]: 29 µM; TGI [34]: 28.6 µM; TGI [35]: 30.7 µM; TGI [36]: 31.4 µM; TGI [37]: 28.4 µM; TGI [38]: 45.5 µM; TGI [39]: 24.4 µM; TGI [40]: 32.2 µM; TGI [41]: 27.7 µM; TGI [42]: 26.2 µM; TGI [43]: 30.2 µM; TGI [58]: 40.2 µM; TGI [44]: 39.9 µM; TGI [59]: 34.8 µM; TGI [45]: 27.4 µM; TGI [46]: 30.7 µM; TGI [47]: 33.1 µM; TGI [48]: 20 µM; TGI [49]: 51.8 µM; TGI [50]: > 100 µM; TGI [51]: 28.7 µM; TGI [52]: 66.1 µM; TGI [53]: 29.2 µM; TGI [54]: 30.3 µM; TGI [55]: 25.8 µM

Source: PubChem BioAssay (NCI)
